Assay results reported in patent US6627732B1, “Glutathione derivatives and their dosage forms” (Teijin Limited, priority 1998, dated 2003).

Assays:
[1] = Stability in human plasma; format: in vitro ADME; conditions: heparinized plasma, 250-323 μg/ml
Text: (§1) Rat, rabbit, and human plasma
(§2) Heparinized plasma: 30 to 40 parts

[2] = Stability in rabbit plasma; conditions: rabbit, plasma
Experimental: (1) Bovine serum albumin (hereinafter referred to as BSA), Dulbecco's phosphate buffered saline (hereinafter referred to as D-PBS), swine liver esterase, and rabbit liver esterase were purchased from Sigma, 6-week old male SD rats were purchased from Nippon SLC, and 12-week old or older male Japanese white rabbits were purchased from Ichikawaya. On the day of the incubation experiment described below, blood was drawn from the animals in the presence of heparin, and plasma was separated therefrom for use. Human plasma was obtained from normal healthy males after obtaining their consent.
(2) The glutathione derivatives described in the Examples and Comparative Examples of the present invention were incubated for a fixed time in an enzyme solution having the following composition. Acetonitrile was added to the reaction mixture to inactivate the enzyme thereby to stop the reaction. The concentration of the glutathione derivatives in the deproteinized supernatant was measured by HPLC. For each time point of the esterase enzyme experiment, the mean values from two measurement or more were determined, and for the rats and rabbits the mean values of plasma samples from three individuals were determined. For some of the experiment data, changes with time of percentages relative to initial concentration of the glutathione derivative are shown in FIGS. 2 to 4.
as §1, §2
10 mg-glutathione derivative/ml-ethanol: one part (the final concentration in the reaction mixture is 250-323 μg/ml)

Stability in rat plasma = format: in vitro ADME; conditions: for Half life in rat plasma: heparinized plasma, diluted as needed with BSA/D-PBS, 250-323 μg/ml
Experimental: as §1, §2
(rat plasma was diluted, as needed, with 30 mg-BSA/ml-D-PBS (pH 7.4) for use)

[3] = tested on: human leukemia cell HL-60; assay: HL-60 cell differentiation induction, NBT reducing activity (Example 20); format: cell-based; conditions: 4 days
Experimental: Using the differentiation induction effect on the granulocytes or monocytes/macrophages obtained by culturing the human leukemia cell HL-60 in the presence of 9-cys-retinoic acid (9-cis-RA) or activated vitamin D3 (1α, 25(OH)2D3), and in the coexistence of the glutathione derivatives of Examples and the Comparative Examples of the present invention, the growth-promotion activity was tested.
(1) HL-60 cells used were purchased from the cell bank (Japanese Cancer Research Resource Bank, Cell No. JCRBOO85). In accordance with a standard method, the lyophilized cell stocks that were thawed before the start of the experiment and subcultured were used.
Subculturing was carried out by centrifuging (1500 rpm, 5 minutes) the cells in suspension culture and recovering and by diluting it in a fresh culture liquid at a concentration of about 1/100 (1 to 2×10^4 cells/ml). As the culture liquid, an RPMI 1640 medium containing 10% fetal bovine serum was used.
(2) The cells subcultured in (1) were recovered by centrifugation (1500 rpm, 5 minutes), and were dispersed in the culture liquid at 2×10^4 cells/ml, which were plated on a 24-well culture plate at 1 ml/well. To this system were added the glutathione derivatives of Example 4, Example 11, Comparative Example 1 and Comparative Example 2 and a differentiation induction substance (9-cis-RA or 1α, 25(OH)2D3). Thus, 1 μl per well each of an ethanol solution of the differentiation induction substances 9-cis-RA and 1α, 25(OH)2D3 were added at 5×10^−6 M and 2×10^−6 M, respectively. Then, 1 μl per well each of ethanol solutions of the glutathione derivatives at 1×10^−4 M to 1×10^−2 M was added. As the solvent treatment for the control, 1 μl of ethanol per well was added in stead of the glutathione derivative, and as the single treatment of glutathione derivatives, 1 μl of ethanol per well was added in stead of the differentiation induction substance. After culturing at 37° C. and 5% CO2 for 4 days, the cells were recovered by centrifugation (1500 rpm, 5 minutes).
(3) The measurement of a nitroblue tetrazolium (NBT) reducing activity which is often used for the evaluation of differentiation induction effects on monocytes/macrophages or granulocytic cells was carried out according to the following procedure. Thus, the cells recovered by centrifugation in (2) were suspended in a fresh culture medium, and then NBT was added thereto to […] and 12-O-tetradecanoyl phorbol-13-acetate to 100 nM. After incubating at 37° C. for 25 minutes, cytospin samples were prepared. After air drying, the cells were subjected to Kernechtrot stain, and 500 cells per sample were examined under alight microscope to determine the ratio of the NBT reduction activity-positive cells.
(4) The result of the experiment in which glutathione derivatives at 10^−7 to 10^−5 M were treated together with a differentiation induction substances is shown in Table 4. For a single treatment of each glutathione derivative up to 10^−5 M, no increases in the NBT reducing activity was observed. In a combined treatment of a glutathione derivative and a differentiation induction substance, an enhanced ratio of the NBT reduction activity-positive cells relative to the single treatment with a differentiation induction substance was observed depending on the concentration of the glutathione derivative. There were no major differences observed in the strength of effects between the glutathione derivatives of Examples 4 and 11 and Comparative Examples 1, and 2.

swine liver esterase = assay: Decomposition by swine liver esterase with and without fat emulsion (Example 22); format: in vitro ADME; conditions: for Decomposition rate constant in the absence of the fat emulsion: alcohol solution with physiological saline; for Decomposition rate constant in the presence of the fat emulsion: fat emulsion added at 15 (v/v)%
Experimental: The glutathione derivative combined with a fat emulsion was incubated with swine liver esterase to compare the resistance to decomposition.
Thereupon, the concentration of the glutathione derivatives of Comparative Examples 1 and 2 in the fat emulsion were each adjusted to 1 mg/ml.
After incubation for a fixed time in a similar manner to that in Example 19, the content of the glutathione derivative was quantitated by HPLC. As the control experiment, an alcohol solution of the glutathione derivative of Example 4, Comparative Example 1 or 2 was added to the esterase reaction mixture together with physiological saline for adjustment of the total volume, and incubated similarly and analyzed by HPLC.
(3) Since a linear disappearance curve was observed as in Example 19, each decomposition rate constant was determined and was compared, which was summarized in Table 6.

[4] = compound 10^−5 M, Solvent control (EtOH), no differentiation induction substance
[5] = compound 10^−5 M, with 1α,25(OH)2D3 (2 × 10^−9 M)
[6] = compound 10^−5 M, with 9-cis-RA (5 × 10^−9 M)
[7] = compound 10^−6 M, Solvent control (EtOH), no differentiation induction substance
[8] = compound 10^−6 M, with 1α,25(OH)2D3 (2 × 10^−9 M)
[9] = compound 10^−6 M, with 9-cis-RA (5 × 10^−9 M)
[10] = compound 10^−7 M, Solvent control (EtOH), no differentiation induction substance
[11] = compound 10^−7 M, with 1α,25(OH)2D3 (2 × 10^−9 M)
[12] = compound 10^−7 M, with 9-cis-RA (5 × 10^−9 M)

Half life in human plasma [1] | Half life in rabbit plasma [2] | Stability in biological sample solutions such as rat blood (Stability in rat plasma) | Half life in rat plasma (Stability in rat plasma) | Half life in the plasma of experimental animals (Stability in rat plasma; mice and rats) | Ratio of decomposition rate constant (in the presence of the fat emulsion/physiological saline) (swine liver esterase) | Decomposition rate constant in the absence of the fat emulsion (swine liver esterase) | Decomposition rate constant in the presence of the fat emulsion (swine liver esterase) | SMILES | Ratio of NBT reduction activity-positive cells [3, 4] | Ratio of NBT reduction activity-positive cells [3, 5] | Ratio of NBT reduction activity-positive cells [3, 6] | Ratio of NBT reduction activity-positive cells [3, 7] | Ratio of NBT reduction activity-positive cells [3, 8] | Ratio of NBT reduction activity-positive cells [3, 9] | Ratio of NBT reduction activity-positive cells [3, 10] | Ratio of NBT reduction activity-positive cells [3, 11] | Ratio of NBT reduction activity-positive cells [3, 12]
10.7 h | 6.53 h | very unstable | 0.00217 h | extremely short half life | 0.609 | 1.206 × 10^−2 /unit/min | 7.343 × 10^−3 /unit/min | CCOC(=O)[C@@H](N)CCC(=O)N[C@@H](CSCc1ccccc1)C(=O)N[C@@H](C(=O)OCC)c1ccccc1.Cl [Comparative Example 1, Glu(Cys(Bzl)-D-Phg-O(Et))-O(Et)hydrochloride, reference compound] | 0.4% | 13.0% | 18.8% | 0.2% | 7.6% | 10.1% | 0.2% | 5.4% | 6.3%
10.3 h | 3.97 h |  | 0.0035 h |  | 0.454 | 3.638 × 10^−2 /unit/min | 1.650 × 10^−2 /unit/min | CCCCCCCCOC(=O)[C@H](NC(=O)[C@H](CSCc1ccccc1)NC(=O)CC[C@H](N)C(=O)OCC)c1ccccc1.Cl [Comparative Example 2, Glu(Cys(Bzl)-D-Phg-O(Octyl))-O(Et)hydrochloride, reference compound] | 0.6% | 18.2% | 33.2% | 0.4% | 9.3% | 15.2% | 0.2% | 4.6% | 7.4%
184.77 h | 22.05 h |  | 2.57 h |  | 0.185 | 1.100 × 10^−4 /unit/min | 2.033 × 10^−5 /unit/min | CCCCCCCCCCCCCCCCOC(=O)[C@@H](N)CCC(=O)N[C@@H](CSCc1ccccc1)C(=O)N[C@@H](C(=O)OCC)c1ccccc1.Cl [Example 4, Glu(Cys(Bzl)-D-Phg-OEt)-O(Hexadecyl)hydrochloride] | 0.2% | 31.3% | 18.0% | 0.2% | 10.3% | 10.4% | 0.2% | 5.7% | 6.7%
